Assays:
Assay in all cases: relative viability (nuclei count vs DMSO), 5 days (fraction); higher = more cells survive
A-427 = tested on: A-427
Method in brief: (§1)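 Each reported value is a median over duplicate plates. It expresses relative viability: treated-well nuclei count divided by vehicle-well nuclei count. Lung cancer cell lines in 1536-well plates were dosed by pin tool a day after seeding, alone with one drug or with a fixed anchor-drug dose plus five library-drug doses (not always all listed) in √10 steps, and nuclei were counted after 5 days.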

LU99A = tested on: LU99A
Method in brief: as §1

HARA = tested on: HARA
Method in brief: as §1

NCI-H441 = tested on: NCI-H441
Method in brief: as §1

LCLC-97TM1 = tested on: LCLC-97TM1
Method in brief: as §1

NCI-H23 = tested on: NCI-H23
Method in brief: as §1

NCI-H460 = tested on: NCI-H460
Method in brief: as §1

NCI-H1666 = tested on: NCI-H1666
Method in brief: as §1

NCI-H2126 = tested on: NCI-H2126
Method in brief: as §1

LOU-NH91 = tested on: LOU-NH91
Method in brief: as §1

NCI-H650 = tested on: NCI-H650
Method in brief: as §1

NCI-H1915 = tested on: NCI-H1915
Method in brief: as §1

PC-3 [JPC-3] = tested on: PC-3 [JPC-3]
Method in brief: as §1

NCI-H1395 = tested on: NCI-H1395
Method in brief: as §1

NCI-H1793 = tested on: NCI-H1793
Method in brief: as §1

NCI-H1755 = tested on: NCI-H1755
Method in brief: as §1

NCI-H1944 = tested on: NCI-H1944
Method in brief: as §1

NCI-H322M = tested on: NCI-H322M
Method in brief: as §1

LXF-289 = tested on: LXF-289
Method in brief: as §1

NCI-H2170 = tested on: NCI-H2170
Method in brief: as §1

BEN = tested on: BEN
Method in brief: as §1

NCI-H2342 = tested on: NCI-H2342
Method in brief: as §1

## CCCCCCCCCCCC1=C(O)C(=O)C=C(O)C1=O [Embelin] + NC(=O)Nc1cc(-c2cccc(F)c2)sc1C(=O)N[C@H]1CCCNC1 [AZD7762] (partner 0.2 µM)
A-427; first compound 0.08 µM
  relative viability: 0.75
A-427; first compound 0.8 µM
  relative viability: 0.877
A-427; first compound 2.53 µM
  relative viability: 0.737
A-427; first compound 8 µM
  relative viability: 0.452
LU99A; first compound 0.08 µM
  relative viability: 0.335
LU99A; first compound 0.8 µM
  relative viability: 0.4
LU99A; first compound 2.53 µM
  relative viability: 0.372
LU99A; first compound 8 µM
  relative viability: 0.233
HARA; first compound 0.08 µM
  relative viability: 0.37
HARA; first compound 0.8 µM
  relative viability: 0.455
HARA; first compound 2.53 µM
  relative viability: 0.52
HARA; first compound 8 µM
  relative viability: 0.362
NCI-H441; first compound 0.08 µM
  relative viability: 1.09
NCI-H441; first compound 0.8 µM
  relative viability: 1.24
NCI-H441; first compound 2.53 µM
  relative viability: 1.18
NCI-H441; first compound 8 µM
  relative viability: 1.36
LCLC-97TM1; first compound 0.08 µM
  relative viability: 0.223
LCLC-97TM1; first compound 0.8 µM
  relative viability: 0.248
LCLC-97TM1; first compound 2.53 µM
  relative viability: 0.205
LCLC-97TM1; first compound 8 µM
  relative viability: 0.268
NCI-H23; first compound 0.08 µM
  relative viability: 0.27
NCI-H23; first compound 0.8 µM
  relative viability: 0.297
NCI-H23; first compound 2.53 µM
  relative viability: 0.3
NCI-H23; first compound 8 µM
  relative viability: 0.248
NCI-H460; first compound 0.08 µM
  relative viability: 0.658
NCI-H460; first compound 0.8 µM
  relative viability: 0.717
NCI-H460; first compound 2.53 µM
  relative viability: 0.585
NCI-H460; first compound 8 µM
  relative viability: 0.378
NCI-H1666; first compound 0.08 µM
  relative viability: 0.871
NCI-H1666; first compound 0.8 µM
  relative viability: 0.885
NCI-H1666; first compound 2.53 µM
  relative viability: 0.782
NCI-H1666; first compound 8 µM
  relative viability: 0.922
NCI-H2126; first compound 0.08 µM
  relative viability: 0.936
NCI-H2126; first compound 0.8 µM
  relative viability: 1.08
NCI-H2126; first compound 2.53 µM
  relative viability: 1.12
NCI-H2126; first compound 8 µM
  relative viability: 1
LOU-NH91; first compound 0.08 µM
  relative viability: 0.795
LOU-NH91; first compound 0.8 µM
  relative viability: 0.932
LOU-NH91; first compound 2.53 µM
  relative viability: 0.779
LOU-NH91; first compound 8 µM
  relative viability: 0.729
NCI-H650; first compound 0.08 µM
  relative viability: 0.889
NCI-H650; first compound 0.8 µM
  relative viability: 1.03
NCI-H650; first compound 2.53 µM
  relative viability: 1.01
NCI-H650; first compound 8 µM
  relative viability: 1.27
NCI-H1915; first compound 0.08 µM
  relative viability: 0.72
NCI-H1915; first compound 0.8 µM
  relative viability: 0.764
NCI-H1915; first compound 2.53 µM
  relative viability: 0.751
NCI-H1915; first compound 8 µM
  relative viability: 0.614
PC-3 [JPC-3]; first compound 0.08 µM
  relative viability: 0.765
PC-3 [JPC-3]; first compound 0.8 µM
  relative viability: 0.888
PC-3 [JPC-3]; first compound 2.53 µM
  relative viability: 0.797
PC-3 [JPC-3]; first compound 8 µM
  relative viability: 0.724
NCI-H1395; first compound 0.08 µM
  relative viability: 0.434
NCI-H1395; first compound 0.8 µM
  relative viability: 0.425
NCI-H1395; first compound 2.53 µM
  relative viability: 0.384
NCI-H1395; first compound 8 µM
  relative viability: 0.366
NCI-H1793; first compound 0.08 µM
  relative viability: 0.635
NCI-H1793; first compound 0.8 µM
  relative viability: 0.927
NCI-H1793; first compound 2.53 µM
  relative viability: 0.472
NCI-H1793; first compound 8 µM
  relative viability: 0.408
NCI-H1755; first compound 0.08 µM
  relative viability: 0.432
NCI-H1755; first compound 0.8 µM
  relative viability: 0.477
NCI-H1755; first compound 2.53 µM
  relative viability: 0.45
NCI-H1755; first compound 8 µM
  relative viability: 0.429
NCI-H1944; first compound 0.08 µM
  relative viability: 0.449
NCI-H1944; first compound 0.8 µM
  relative viability: 0.566
NCI-H1944; first compound 2.53 µM
  relative viability: 0.526
NCI-H1944; first compound 8 µM
  relative viability: 0.436
NCI-H322M; first compound 0.08 µM
  relative viability: 0.585
NCI-H322M; first compound 0.8 µM
  relative viability: 0.632
NCI-H322M; first compound 2.53 µM
  relative viability: 0.568
NCI-H322M; first compound 8 µM
  relative viability: 0.472
LXF-289; first compound 0.08 µM
  relative viability: 1.17
LXF-289; first compound 0.8 µM
  relative viability: 1.16
LXF-289; first compound 2.53 µM
  relative viability: 1.14
LXF-289; first compound 8 µM
  relative viability: 1.2
NCI-H2170; first compound 0.08 µM
  relative viability: 0.906
NCI-H2170; first compound 0.8 µM
  relative viability: 0.958
NCI-H2170; first compound 2.53 µM
  relative viability: 1.06
NCI-H2170; first compound 8 µM
  relative viability: 0.914
BEN; first compound 0.08 µM
  relative viability: 0.63
BEN; first compound 0.8 µM
  relative viability: 0.765
BEN; first compound 2.53 µM
  relative viability: 0.716
BEN; first compound 8 µM
  relative viability: 0.542
NCI-H2342; first compound 0.08 µM
  relative viability: 0.47
NCI-H2342; first compound 0.8 µM
  relative viability: 0.514
NCI-H2342; first compound 2.53 µM
  relative viability: 0.546
NCI-H2342; first compound 8 µM
  relative viability: 0.456

— the supplement of paper PMC10307832
